Experimental data from the NIST ThermoML archive (doi:10.1016/j.jct.2018.09.026).

Test: mn = molality of the nth substance listed, in mol/kg
Conditions: 100 kPa, Liquid; for speed of sound: Frequency=3 MHz, Single path-length method; for mass density: Vibrating tube method

CNCCC=C1c2ccccc2CCc2ccccc21.Cl + O
Conditions	mass density, 288.15 K [kg/m3]	mass density, 293.15 K [kg/m3]	mass density, 298.15 K [kg/m3]	mass density, 303.15 K [kg/m3]	mass density, 308.15 K [kg/m3]	speed of sound, 288.15 K [m/s]	speed of sound, 293.15 K [m/s]	speed of sound, 298.15 K [m/s]	speed of sound, 303.15 K [m/s]	speed of sound, 308.15 K [m/s]
m1 = 0.025	1000.19	999.27	998.086	996.667	995.032	1471.8	1487.4	1501.2	1513.2	1523.6
m1 = 0.05	1001.25	1000.3	999.096	997.655	995.999	1475.9	1491.2	1504.8	1516.7	1526.8
m1 = 0.075	1002.26	1001.3	1000.07	998.612	996.941	1478.3	1493.7	1507.2	1519	1529.1
